Measurements published in US20070213283A1, “Macrolides substituted at the 4"-position” (priority 2003, published 2007).
Counter-ions that a name gives are not always drawn. Like-named read-outs stand apart in the source and are kept apart here.

Legend:
Assay in all cases: MIC, standard broth dilution method in microtitre
Assay type in all cases: cell-based
[1] = system: erythromycin resistant strains of Streptococcus pneumoniae
Description: (§1) Using a standard broth dilution method in microtitre, compounds were tested for antibacterial activity. The compounds in the above examples gave minimum inhibitory concentrations (MICs) less than 1 microgram per millilitre against erythromycin-sensitive and erythromycin-resistant strains of Streptococcus pneumoniae and Streptococcus pyogenes.

[2] = system: erythromycin resistant strains of Streptococcus pyogenes
Description: as §1

H. influenzae ATCC 49247 = details: Haemophilus influenzae, ATCC49247
Description: as §1
(§2) In addition, the MIC (μg/mL) of test compounds against various organisms was determined including:
(§3) S. aureus Smith ATCC 13709, S. pneumoniae SP030, S. pyogenes 3565, E. faecalis ATCC 29212, H. influenzae ATCC 49247, M. catarrhalis ATCC 23246.

S. pyogenes 3565 = details: Streptococcus pyogenes
Description: as §1, §2, §3

[3] = system: S. aureus Smith ATCC 13709; details: Staphylococcus aureus, ATCC13709
Description: as §1, §2, §3

E. faecalis ATCC 29212 = details: Enterococcus faecalis, ATCC29212
Description: as §1, §2, §3

S. pneumoniae SP030 = details: Streptococcus pneumoniae
Description: as §1, §2, §3

[4] = system: M. catarrhalis ATCC 23246; details: Moraxella catarrhalis, ATCC23246
Description: as §1, §2, §3

[5] = H. influenzae ATCC 49247, broth dilution in microtitre, read-out: MIC

| Compound | MIC [1] [µg/mL] | MIC [2] [µg/mL] | MIC (H. influenzae ATCC 49247; [5]) [µg/mL] | MIC (S. pyogenes 3565) [µg/mL] | MIC [3] [µg/mL] | MIC (E. faecalis ATCC 29212) [µg/mL] | MIC (S. pneumoniae SP030) [µg/mL] | MIC [4] [µg/mL] | MIC (H. influenzae ATCC 49247) [µg/mL] |
| --- | --- | --- | --- | --- | --- | --- | --- | --- | --- |
| CC[C@@H]1OC(=O)[C@H](C)[C@H](O[C@@H]2C[C@](C)(OC)[C@H](OC(=O)CCNCCSc3ccc4c(c3)c(=O)c(C(=O)O)cn4CC)[C@H](C)O2)[C@@H](C)[C@H](O[C@@H]2O[C@H](C)C[C@H](N(C)C)[C@@H]2O)[C@](C)(O)C[C@H](C)CN(C)[C@@H](C)[C@@H]2OC(=O)O[C@@]12C [Example 11, 4″-O-{3-[2-(3-Carboxy-1-ethyl-4-oxo-1,4-dihydro-6-quinolinysulfanyl)ethylamino]propionyl}-azithromycin11,12-carbonate] | ≤ 0.25 | ≤ 0.25 | ≤ 2 | ≤ 1 | ≤ 1 | ≤ 1 | ≤ 1 | ≤ 2 |  |
| CC[C@@H]1OC(=O)[C@H](C)[C@H](O[C@@H]2C[C@](C)(OC)[C@H](OC(=O)CCNCCOc3cc4c5c(c3)c(=O)c(C(=O)O)cn5CCC4)[C@H](C)O2)[C@@H](C)[C@H](O[C@@H]2O[C@H](C)C[C@H](N(C)C)[C@@H]2O)[C@](C)(OC)C[C@H](C)C(=O)[C@H](C)[C@@H](O)[C@]1(C)O [Example 13, 4′-O-{3-[2-(6-Carboxy-7-oxo-2,3-dihydro-1H,7H-pyrido[3,2,1-ij]quinolin-9-yloxy)ethylamino]propionyl}-6-O-methyl-erythromycin A bis trifluoroacetate salt] | ≤ 0.25 | ≤ 0.25 |  | ≤ 1 | ≤ 1 | ≤ 1 | ≤ 1 | ≤ 2 | ≤ 2 |
| CC[C@@H]1OC(=O)[C@H](C)[C@H](O[C@@H]2C[C@](C)(OC)[C@H](OC(=O)CCNCCOc3ccc4c(=O)c(C(=O)O)cn(CC)c4c3)[C@H](C)O2)[C@@H](C)[C@H](O[C@@H]2O[C@H](C)C[C@H](N(C)C)[C@@H]2O)[C@](C)(OC)C[C@H](C)C(=O)[C@H](C)[C@@H](O)[C@]1(C)O [Example 17, 4″-O-{3-[2-(3-Carboxy-1-ethyl-4-oxo-1,4-dihydro-7-quinolinyloxy)ethylamino]propionyl}-6-O-methyl-erythromycin A] | ≤ 0.25 | ≤ 0.25 | ≤ 2 | ≤ 1 | ≤ 1 | ≤ 1 | ≤ 1 | ≤ 2 |  |
| CC[C@H]1OC(=O)[C@H](C)[C@@H](O[C@H]2C[C@@](C)(OC)[C@@H](OC(=O)CCOCCNc3cc4c(=O)c(C(=O)O)cn(C5CC5)c4cc3Cl)[C@H](C)O2)[C@@H](C)[C@@H](O[C@@H]2O[C@H](C)C[C@H](N(C)C)[C@H]2O)[C@](C)(O)C[C@@H](C)CN(C)[C@H](C)[C@@H](O)[C@]1(C)O [Example 18, 4″-O-{3-[2-(3-Carboxy-7-chloro-1-cyclopropyl-4-oxo-1,4-dihydro-4-quinolinylamino)ethoxy]propionyl}-azithromycin] | ≤ 0.25 | ≤ 0.25 | ≤ 2 | ≤ 1 | ≤ 1 | ≤ 1 | ≤ 1 | ≤ 2 |  |
| CC[C@H]1OC(=O)[C@H](C)[C@@H](O[C@H]2C[C@@](C)(OC)[C@@H](OC(=O)CCOCCNc3ccc4c(c3)c(=O)c(C(=O)O)cn4C3CC3)[C@H](C)O2)[C@@H](C)[C@@H](O[C@@H]2O[C@H](C)C[C@H](N(C)C)[C@H]2O)[C@](C)(O)C[C@@H](C)CN(C)[C@H](C)[C@@H](O)[C@]1(C)O [Example 19, 4″-O-{3-[2-(3-Carboxy-1-cyclopropyl-4-oxo-1,4-dihydro-6-quinolinylamino)ethoxy]propionyl}-azithromycin] | ≤ 0.25 | ≤ 0.25 | ≤ 2 | ≤ 1 | ≤ 1 | ≤ 1 | ≤ 1 | ≤ 2 |  |
| CC[C@H]1OC(=O)[C@H](C)[C@@H](O[C@H]2C[C@@](C)(OC)[C@@H](OC(=O)CCOCCNc3cc4c(=O)c(C(=O)O)cn(C5CC5)c4cc3Cl)[C@H](C)O2)[C@H](C)[C@@H](O[C@@H]2O[C@H](C)C[C@H](N(C)C)[C@H]2O)[C@](C)(O)C[C@@H](C)CN(C)[C@H](C)[C@@H](OC)[C@]1(C)O [Example 23, 4″-O-{3-[2-(3-Carboxy-7-chloro-1-cyclopropyl-4-oxo-1,4-dihydro-6-quinolinylamino)ethoxy]propionyl}-11-O-methyl-azithromycin] | ≤ 0.25 | ≤ 0.25 | ≤ 2 | ≤ 1 | ≤ 1 | ≤ 1 | ≤ 1 | ≤ 2 |  |
| CC[C@H]1OC(=O)[C@H](C)[C@@H](O[C@H]2C[C@@](C)(OC)[C@@H](OC(=O)CCOCCOc3cc4c(=O)c(C(=O)O)cn(C5CC5)c4cc3Cl)[C@H](C)O2)[C@H](C)[C@@H](O[C@@H]2O[C@H](C)C[C@H](N(C)C)[C@H]2O)[C@](C)(O)C[C@@H](C)CN(C)[C@H](C)[C@@H](O)[C@]1(C)O [Example 27, 4″-O-{3-[2-(3-Carboxy-7-chloro-1-cyclopropyl-4-oxo-1,4-dihydro-quinolin-6-yloxy)ethoxy]-propionyl}-azithromycin] | ≤ 0.25 | ≤ 0.25 | ≤ 2 | ≤ 1 | ≤ 1 | ≤ 1 | ≤ 1 | ≤ 2 |  |
| CC[C@H]1OC(=O)[C@H](C)[C@@H](O[C@H]2C[C@@](C)(OC)[C@@H](OC(=O)CCOCCOc3ccc4c(c3)c(=O)c(C(=O)O)cn4C3CC3)[C@H](C)O2)[C@H](C)[C@@H](O[C@@H]2O[C@H](C)C[C@H](N(C)C)[C@@H]2O)[C@](C)(O)C[C@@H](C)CN(C)[C@H](C)[C@@H](O)[C@]1(C)O [Example 29, 4″-O-{3-[2-(3-Carboxy-1-cyclopropyl-4-oxo-1,4-dihydro-quinolin-6-yloxy)-ethoxy]-propionyl}-azithromycin] | ≤ 0.25 | ≤ 0.25 | ≤ 2 | ≤ 1 | ≤ 1 | ≤ 1 | ≤ 1 | ≤ 2 |  |
